We go through one compound from article PMC4310329, “The length of a lantibiotic hinge region has profound influence on antimicrobial activity and host specificity” (Frontiers in Microbiology, 2015).

The subject of experiment [1] is Bacillus cereus (L′29) 16. Briefly: MIC in liquid culture. It counts as cell-based. The following applies: MIC value of nisin divided by that of the analog. The procedure: (§1) L. lactis strains were cultured in M17 broth supplemented with 0.5% (w/v) glucose (GM17) or GM17 agar for genetic manipulation or in minimal expression medium (MEM) for protein expression at 30°C (Rink et al., [2005]). E. faecalis, S. aureus, S. pneumonia, and L. monocytogenes were grown in GM17 at 37°C or GM17 agar at different temperatures for agar diffusion assay. M. luteus was grown in Luria-Bertani broth shaken (200 rpm) at 30°C or LB agar at 20°C for agar diffusion assay. Bacillus strains were cultured in Brain Heart Infusion (BHI) shaken (200 rpm) or BHI agar at different temperatures for agar diffusion assay.
(§2) The indicator strains were cultured until OD (600 nm) reached 0.5. Before MIC value test, the culture was diluted 1000 times to make the concentration of cells around 5 × 10^5 per milliliter. The test was performed using a temperature controlled plate reader [Tecan200 (Tecan Group AG)] and 96 well plate (Greiner Bio-one). 180 μl indicator strain culture mixed with 20 μl hinge region analogs with final concentration from 0.031 μg/ml–32 μg/ml was incubated at 30°C or 37°C for 18 h. OD (600 nm) was checked every 30 min. For aerobic strains, 2 min of shaking was performed before every check. The concentration of peptide without observed growth of indicator strains was considered as the MIC value.

For another experiment, the system named is Bacillus cereus 4147. Briefly: MIC in liquid culture. Format: cell-based. To be noted: MIC value of nisin divided by that of the analog. The procedure: as §1, §2
For the next experiment, the system named is Bacillus cereus 4153. Briefly: MIC in liquid culture. To be noted: MIC value of nisin divided by that of the analog. Format: cell-based. The procedure:
as §1, §2

For experiment [2], the system named is Enterococcus faecalis VE14089. Briefly: MIC in liquid culture. Format: cell-based. The following applies: MIC value of nisin divided by that of the analog. The procedure: as §1, §2
In experiment [3] the test system is Lactococcus lactis MG1363. Briefly: MIC in liquid culture. Format: cell-based. The following applies: MIC value of nisin divided by that of the analog. The method, then: as §1, §2
In a further experiment the test system is Listeria monocytogenes. Briefly: MIC in liquid culture. Format: cell-based. To be noted: MIC value of nisin divided by that of the analog. The procedure:
as §1, §2

In a further experiment the test system is Micrococcus luteus. Description: MIC in liquid culture. Format: cell-based. To be noted: MIC value of nisin divided by that of the analog. The method, then: as §1, §2
For a further experiment, the system named is Staphylococcus aureus. Description: MIC in liquid culture. It counts as cell-based. The following applies: MIC value of nisin divided by that of the analog. The procedure:
as §1, §2

In experiment [4] the test system is Streptococcus pneumoniae R6. Briefly: MIC in liquid culture. Format: cell-based. To be noted: MIC value of nisin divided by that of the analog. The procedure:
as §1, §2

For another experiment, the system named is L. lactis MG1363. Description: Agar well diffusion assay. Format: cell-based, Lactococcus lactis. To be noted: relative to wt. The method, then: as §1
(§3) For the agar well diffusion assay, the same cultures as in the MIC value test were used and diluted 200 times with solid media. Identical sizes of wells (7.5 mm diameter) were made and 2 μg of hinge region analogs dissolved in 20 μl 0.05% acetic acid were added. The plates were incubated at different temperatures for at least 1 day until apparent halos appeared. For activity test at low temperature, the indicators were diluted in the same way but poured into smaller plates (52 mm diameter). The plates were incubated at 4°C overnight before the peptides were added. B. sporothermodurans IC4 and B. cereus 4153 were first incubated with the peptides at 4°C for 2 weeks then moved to 30°C and incubated overnight. The diameters of the halos were measured.
(§4) The antimicrobial activity of the hinge region analogs in solid media were tested by an agar well diffusion assay. The diameters of the halos were measured and the residual activity of the analogs were estimated according to the formula of the relationship between the concentration of nisin and the sizes of halos. We made use of the fact that the size of the halo is directly related to the log of nisin concentration. Of course this is an estimate of activity of the variants because any changes in diffusion of the variant bacteriocin or growth rates of indicator bacteria during the assay could also affect the size of the halo. (Table 5 and Supplementary Figure 1). The plates were shown in supplementary data (Supplementary Figures 2–8). […] And against L. lactis at 20°C, the inhibition zone was larger than nisin. […] The M. luteus grows quite fast at room temperature and only the +2 variant retained 55% of the activity of nisin. […]
(§5) To evaluate the activity of nisin on the agar plate, an agar well diffusion assay with gradient of nisin against Lactococcus lactis ( with two plasmids) was performed ( Supplementary Figur e 1 A). The diameter of the halos were measured (Supplementary Figure 1B). […]
(§6) the concentration of nisin is in liner relationship with diameter of the halos ( Supplementary Fi g u re 1C). According to the formula (1) , the relative activity of the peptides compared to nisin can be calculated b y the formula ( 2) .
(§7) Supplementary Figure 1. Relationship between concentration of nisin and diameter of the halos. (A) Agar well diffusion assay. Gradient concentration of nisin were made and dissolved in 30µl 0.05% acetic acid. Lactococcus lactis ( with two plasmids) was cultured overnight and diluted 250 times with GM17 agar before added to the plate. The final concentration of the cells was about 2×10^6 cells/milliliter. The plate was incubated for 1 da y. Concentrations of nisin were labeled. (B) log10 of the concentrati ons and diameters of the halo. (C) A linear curve w as made betw een t he diameters of the halo and log10s of the concentration of nisin.
(§8) (1 picture or pasted object on this page, not shown here)
(§9) Last Name a uthor 1 et al. Running Title
(§10) C = concentration of nisin d° = diameter of the halo of wild t ype […]
For orientation: In agar diffusion tests the substance spreads into inoculated agar from a disc or well.

Another experiment has as its system L. monocytogenes. Briefly: Agar well diffusion assay. It counts as cell-based, Listeria monocytogenes. To be noted: estimated from halo diameter by nisin standard curve, relative to wt. The method, then: as §1, §3, §4, §5, §6, §7, §8, §9, §10
A further experiment has as its system E. faecalis VE14089. Description: Agar well diffusion assay. To be noted: estimated from halo diameter by nisin standard curve, relative to wt. Format: cell-based, Enterococcus faecalis. The method, then:
as §1, §3, §4, §5, §6, §7, §8, §9, §10

For the next experiment, the system named is M. luteus. Briefly: Agar well diffusion assay. Format: cell-based, Micrococcus luteus. The following applies: 20 °C; estimated from halo diameter by nisin standard curve, relative to wt. The method, then: as §1, §3, §4, §5, §6
as §7, with “nisin. […]” for “nisin.”

In another experiment the test system is S. aureus. Briefly: Agar well diffusion assay. Format: cell-based, Staphylococcus aureus. The following applies: 20 °C; estimated from halo diameter by nisin standard curve, relative to wt. The procedure: as §1, §3, §4, §5, §6
as §7, with “nisin. […]” for “nisin.”

A further experiment deals with B. sporothermodurans IC4. Description: Agar well diffusion assay. It counts as cell-based, Bacillus sporothermodurans. The following applies: 30 °C; estimated from halo diameter by nisin standard curve, relative to wt. The method, then:
as §1
as §3, with “B. sporothermodurans IC4 and B. cereus 4153 were first incubated with the peptides at 4°C for 2 weeks then moved to 30°C and incubated overnight.” left out
The antimicrobial activity of the hinge region analogs in solid media were tested by an agar well diffusion assay. The diameters of the halos were measured and the residual activity of the analogs were estimated according to the formula of the relationship between the concentration of nisin and the sizes of halos. […]
as §5
the concentration of nisin is in liner relationship with diameter of the halos ( Supplementary Fi g u re 1C). According to the formula (1) , the relative activity of the peptides compared to nisin can be calculated b y the formula ( 2) . […]

For a further experiment, the system named is Bacillus cereus. Description: Agar well diffusion assay against Bacillus strains (Supplementary Figure 8). Format: cell-based. The following applies: 30°C for 18 hours, BHI agar, 5 µg nisin or +2 analogue in 50 µl 0.05% acetic acid. The procedure:
The antimicrobial activity of the hinge region analogs in solid media were tested by an agar well diffusion assay. The diameters of the halos were measured and the residual activity of the analogs were estimated according to the formula of the relationship between the concentration of nisin and the sizes of halos. We made use of the fact that the size of the halo is directly related to the log of nisin concentration. Of course this is an estimate of activity of the variants because any changes in diffusion of the variant bacteriocin or growth rates of indicator bacteria during the assay could also affect the size of the halo. (Table 5 and Supplementary Figure 1). The plates were shown in supplementary data (Supplementary Figures 2–8). […] And against L. lactis at 20°C, the inhibition zone was larger than nisin. […] The M. luteus grows quite fast at room temperature and only the +2 variant retained 55% of the activity of nisin.
Supplementary Figure 7.Agar well diffusion assays of hinge region analogues against Bacillus sporotherm odurans IC4 . 2 µg of peptides w ere added per w ell. The plates were incub ated at 30 ° C […]
Supplementary Figure 8.Agar well diffusion assays of hinge region analogues against 4 kinds of Bacillus strains . 5µl overnight culture was mixed with 5ml BHI agar and poured into the plate. […]

Bounds are passed on as bounds.

Take `C=C(NC(=O)[C@@H](NC(=O)[C@H](Cc1c[nH]cn1)NC(=O)[C@@H](NC(=O)[C@H](CO)NC(=O)[C@@H]1CS[C@@H](C)[C@H]2NC(=O)[C@H](C)NC(=O)[C@H](NC(=O)[C@H](CCCCN)NC(=O)[C@H](CCSC)NC(=O)[C@@H](NC(=O)[C@@H](NC(=O)[C@H](CC(N)=O)NC(=O)[C@@H]3CS[C@@H](C)[C@@H](NC(=O)[C@H](CCCCN)NC(=O)[C@@H]4CS[C@@H](C)[C@@H](NC(=O)[C@@H]5CSC[C@@H](NC(=O)/C(=C/C)NC(=O)[C@@H](N)[C@@H](C)CC)C(=O)N[C@@H]([C@@H](C)CC)C(=O)NC(=C)C(=O)N[C@@H](CC(C)C)C(=O)N5)C(=O)N5CCC[C@H]5C(=O)NCC(=O)N4)C(=O)NCC(=O)N[C@@H](C)C(=O)N[C@@H](CC(C)C)C(=O)N[C@@H](CCSC)C(=O)NCC(=O)N3)[C@@H](C)CC)C(C)C)[C@H](C)SC[C@H](NC2=O)C(=O)N[C@@H](Cc2c[nH]cn2)C(=O)N1)[C@@H](C)CC)C(C)C)C(=O)N[C@@H](CCCCN)C(=O)O` [+2]: the “Residual activity of variants compared to nisin” value in experiment [1] was 25%; in the experiment with Bacillus cereus 4147 it was 50%; in the experiment with Bacillus cereus 4153 it was 50%; in experiment [2], 30%; in experiment [3], 25%; in the experiment with Listeria monocytogenes it was 50%. Further, the “Residual activity of variants compared to nisin” value in the experiment on Micrococcus luteus is reported as 25%; with Staphylococcus aureus it was less than 6%; in [4], 25%. Also, the Residual activity in the experiment on L. lactis MG1363 (20 °C, estimated from halo diameter by nisin standard curve (halo diameter vs log of nisin concentration)) is given as 140%; with L. lactis MG1363 (30 °C, estimated from halo diameter by nisin standard curve), 114%; in the experiment on L. monocytogenes (20 °C), 139%; in the experiment with L. monocytogenes (30 °C), 114%; in the experiment on E. faecalis VE14089 (20 °C), 144%; in the experiment with E. faecalis VE14089 (30 °C), 88%. Besides, the Residual activity with E. faecalis VE14089 (37 °C) is recorded as 101%; with M. luteus it was 55%; in the experiment with S. aureus it was 22%; in the experiment on B. sporothermodurans IC4, 236%. In the experiment with Bacillus cereus, the “plate activity compared to nisin” value was “either equal or higher plate activity than nisin”.
